Source: PMC10825133, “Repurposing proteasome inhibitors for improved treatment of triple-negative breast cancer” (Cell Death Discovery, 2024)
Like-named read-outs stand apart in the source and are kept apart here. Residues, ends and D or L forms follow the SMILES beside them. *: point of attachment. Cbz = O=C(OCc1ccccc1)*

How the values were obtained:
Assay in all cases: Resazurin-based cell viability assay, monotherapy drug screen
[1] = test system: MCF-10A cells; parameters: species or system human; AUC: scale not given here; conditions: for AUC: area under the dose response curve
How it was run: (§1)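 Cells were seeded at the highest density (tested 1000-16000 cells/well) giving linear growth between days 1 and 3, keeping them in exponential phase over the ~52 h experiment. Viability was read after 4 h at 37 °C with 0.2 mg/ml resazurin added at 10% of medium volume; ex 560/em 615 nm.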

[2] = test system: BT-549 cells; parameters: species or system human; AUC: scale not given here; conditions: for AUC: area under the dose response curve, 24 h; for GRmax: drug efficacy at highest tested dose (<0 cytotoxic, 0 cytostatic, >0 partial growth inhibition)
How it was run: as §1

[3] = test system: HCC70 cells; parameters: species or system human; AUC: scale not given here; conditions: for AUC: area under the dose response curve, 24 h; for GRmax: drug efficacy at highest tested dose (<0 cytotoxic, 0 cytostatic, >0 partial growth inhibition)
How it was run: as §1

[4] = test system: MDA-MB-453 cells; parameters: species or system human; AUC: scale not given here; conditions: for AUC: area under the dose response curve, 24 h
How it was run: as §1

[5] = test system: HCC38 cells; parameters: species or system human; AUC: scale not given here; conditions: for AUC: area under the dose response curve, 24 h; for GRmax: drug efficacy at highest tested dose (<0 cytotoxic, 0 cytostatic, >0 partial growth inhibition)
How it was run: as §1

[6] = test system: HCC1806 cells; parameters: species or system human; AUC: scale not given here; conditions: for AUC: area under the dose response curve, 24 h; for GRmax: drug efficacy at highest tested dose (<0 cytotoxic, 0 cytostatic, >0 partial growth inhibition)
How it was run: as §1

[7] = test system: MDA-MB-436 cells; parameters: species or system human; AUC: scale not given here; conditions: for AUC: area under the dose response curve, 24 h; for GRmax: drug efficacy at highest tested dose (<0 cytotoxic, 0 cytostatic, >0 partial growth inhibition)
How it was run: as §1

[8] = test system: MDA-MB-468 cells; parameters: species or system human; AUC: scale not given here; conditions: for AUC: area under the dose response curve, 24 h
How it was run: as §1

[9] = test system: CAL-148 cells; parameters: species or system human; AUC: unit not given beside the values; conditions: for AUC: area under the dose response curve, 24 h; for GRmax: drug efficacy at highest tested dose (<0 cytotoxic, 0 cytostatic, >0 partial growth inhibition)
[10] = Homo sapiens, 24 h drug treatment, read-out: IC50
[11] = Homo sapiens, growth rate inhibition concentration at GR(c) = 0.5, 24 h, read-out: GR50 (the source's name)
[12] = Homo sapiens, BT-549, 24 h drug treatment, read-out: IC50
[13] = Homo sapiens, BT-549, growth rate inhibition concentration at GR(c) = 0.5, 24 h, read-out: GR50 (the source's name)
[14] = Homo sapiens, HCC70, 24 h drug treatment, read-out: IC50
[15] = Homo sapiens, HCC70, growth rate inhibition concentration at GR(c) = 0.5, 24 h, read-out: GR50 (the source's name)
[16] = Homo sapiens, MDA-MB-453, 24 h drug treatment, read-out: IC50
[17] = Homo sapiens, MDA-MB-453, growth rate inhibition concentration at GR(c) = 0.5, 24 h, read-out: GR50 (the source's name)
[18] = Homo sapiens, HCC38, 24 h drug treatment, read-out: IC50
[19] = Homo sapiens, HCC38, growth rate inhibition concentration at GR(c) = 0.5, 24 h, read-out: GR50 (the source's name)
[20] = Homo sapiens, HCC1806, growth rate inhibition concentration at GR(c) = 0.5, 24 h, read-out: GR50 (the source's name)
[21] = Homo sapiens, MDA-MB-436, growth rate inhibition concentration at GR(c) = 0.5, 24 h, read-out: GR50 (the source's name)
[22] = Homo sapiens, MDA-MB-468, 24 h drug treatment, read-out: IC50
[23] = Homo sapiens, MDA-MB-468, growth rate inhibition concentration at GR(c) = 0.5, 24 h, read-out: GR50 (the source's name)
[24] = Homo sapiens, CAL-148, 24 h drug treatment, read-out: IC50
[25] = Homo sapiens, CAL-148, growth rate inhibition concentration at GR(c) = 0.5, 24 h, read-out: GR50 (the source's name)

| SMILES | IC50 [1, 10] | IC50 [1, 11] | AUC ([1]; 24 h) | AUC ([2]; BT-549) | GRmax ([2]; BT-549) | IC50 [2, 12] | IC50 [2, 13] | AUC ([3]; HCC70) | GRmax ([3]; HCC70) | IC50 [3, 14] | AUC ([4]; MDA-MB-453) | AUC ([5]; HCC38) | GRmax ([5]; HCC38) | AUC ([6]; HCC1806) | GRmax ([6]; HCC1806) | AUC ([7]; MDA-MB-436) | GRmax ([7]; MDA-MB-436) | AUC ([8]; MDA-MB-468) | AUC ([9]; CAL-148) | GRmax ([9]; CAL-148) | further results |
| --- | --- | --- | --- | --- | --- | --- | --- | --- | --- | --- | --- | --- | --- | --- | --- | --- | --- | --- | --- | --- | --- |
| COc1cccc2c1C(=O)c1c(O)c3c(c(O)c1C2=O)C[C@@](O)(C(=O)CO)C[C@@H]3O[C@H]1C[C@H](N)[C@H](O)[C@H](C)O1 [Doxorubicin] | 0.99 µM | 0.98 µM | 0.72 | 0.89 | 0.36 | 7.6 µM | 5.6 µM | 0.88 | −0.35 | 3.3 µM | 0.88 | 0.83 | 0.01 | 0.87 | 0.54 | 0.85 | 0.26 | 0.84 | 0.72 | 0.15 | IC50 [3, 15]: 1.8 µM; IC50 [4, 16]: 8.1 µM; IC50 [4, 17]: 4.6 µM; IC50 [5, 18]: 2.9 µM; IC50 [5, 19]: 0.77 µM; IC50 [6, 20]: 6 µM; IC50 ([7]; Homo sapiens, MDA-MB-436, 24 h drug treatment, read-out: IC50): 9.7 µM; IC50 [7, 21]: 3.4 µM; IC50 [8, 22]: 3 µM; IC50 [8, 23]: 1.5 µM; IC50 [9, 24]: 0.22 µM; IC50 [9, 25]: 0.12 µM |
| COc1cccc2c1C(=O)c1c(O)c3c(c(O)c1C2=O)C[C@@](O)(C(=O)CO)C[C@@H]3O[C@H]1C[C@H](N)[C@@H](O)[C@H](C)O1 [Epirubicin] | 0.69 µM | 0.69 µM | 0.69 | 0.88 | 0.34 | 4.6 µM | 4.3 µM | 0.83 | −0.49 | 1.6 µM | 0.90 | 0.81 | −0.03 | 0.86 | 0.45 | 0.84 | 0.26 | 0.80 | 0.73 | 0.14 | IC50 [3, 15]: 1 µM; IC50 [4, 16]: 5.3 µM; IC50 [4, 17]: 3.2 µM; IC50 [5, 18]: 2.3 µM; IC50 [5, 19]: 0.69 µM; IC50 [6, 20]: 6.2 µM; IC50 [7, 21]: 3.6 µM; IC50 [8, 22]: 2.2 µM; IC50 [8, 23]: 0.96 µM; IC50 [9, 24]: 0.2 µM; IC50 [9, 25]: 0.11 µM |
| CC[C@H](C)[C@H](NC(=O)[C@H]([C@@H](C)CC)N(C)C(C)=O)C(=O)N[C@H](C(=O)N[C@@H](CC(C)C)C(=O)[C@@]1(C)CO1)[C@@H](C)O [Epoxomicin] | – | – | 0.58 | 0.73 | 0.38 | – | – | 0.72 | −0.52 | – | 0.70 | 0.47 | −0.74 | 0.73 | 0.34 | 0.77 | 0.37 | 0.65 | 0.78 | 0.11 | IC50 ([1]; 24 h drug treatment, read-out: IC50): 0.088 µM; GRmax ([1]; drug efficacy at highest tested dose (<0 cytotoxic, 0 cytostatic, >0 partial growth inhibition)): −0.05; IC50 ([1]; growth rate inhibition concentration at GR(c) = 0.5, 24 h, read-out: GR50 (the source's name)): 0.095 µM; IC50 ([2]; BT-549, growth rate inhibition concentration at GR(c) = 0.5, 24 h, read-out: GR50 (the source's name)): 0.13 µM; IC50 ([3]; HCC70, 24 h drug treatment, read-out: IC50): 0.98 µM; IC50 ([3]; HCC70, growth rate inhibition concentration at GR(c) = 0.5, 24 h, read-out: GR50 (the source's name)): 0.14 µM; GRmax ([4]; MDA-MB-453, drug efficacy at highest tested dose (<0 cytotoxic, 0 cytostatic, >0 partial growth inhibition)): 0.32; IC50 ([4]; MDA-MB-453, growth rate inhibition concentration at GR(c) = 0.5, 24 h, read-out: GR50 (the source's name)): 0.015 µM; IC50 ([5]; HCC38, 24 h drug treatment, read-out: IC50): 0.054 µM; IC50 ([5]; HCC38, growth rate inhibition concentration at GR(c) = 0.5, 24 h, read-out: GR50 (the source's name)): 0.044 µM; IC50 ([6]; HCC1806, 24 h drug treatment, read-out: IC50): 0.47 µM; IC50 ([6]; HCC1806, growth rate inhibition concentration at GR(c) = 0.5, 24 h, read-out: GR50 (the source's name)): 0.29 µM; IC50 ([7]; MDA-MB-436, growth rate inhibition concentration at GR(c) = 0.5, 24 h, read-out: GR50 (the source's name)): 0.32 µM; IC50 ([8]; MDA-MB-468, 24 h drug treatment, read-out: IC50): 0.11 µM; GRmax ([8]; MDA-MB-468, drug efficacy at highest tested dose (<0 cytotoxic, 0 cytostatic, >0 partial growth inhibition)): 0.01; IC50 ([8]; MDA-MB-468, growth rate inhibition concentration at GR(c) = 0.5, 24 h, read-out: GR50 (the source's name)): 0.051 µM; IC50 ([9]; CAL-148, growth rate inhibition concentration at GR(c) = 0.5, 24 h, read-out: GR50 (the source's name)): 0.77 µM |
| CC(C)C[C@@H](C=O)NC(=O)[C@H](CC(C)C)NC(=O)[C@H](CC(C)C)NC(=O)OCc1ccccc1 [MG 132, MG-132] (Cbz-Leu-Leu-Leu-aldehyde) | – | – | 0.78 | 0.83 | 0.26 | – | – | 0.87 | −0.40 | – | 0.87 | 0.71 | −0.98 | 0.82 | 0.31 | 0.86 | −0.88 | 0.81 | 0.89 | 0.22 | IC50 ([1]; Homo sapiens, 24 h): 0.94 µM; IC50 ([1]; Homo sapiens, 24 h, read-out: GR50 (µM)): 0.4 µM; IC50 ([2]; Homo sapiens, BT-549, 24 h): 4.3 µM; IC50 ([2]; Homo sapiens, BT-549, 24 h, read-out: GR50 (µM)): 1.4 µM; IC50 ([3]; Homo sapiens, HCC70, 24 h): 3.7 µM; IC50 ([3]; Homo sapiens, HCC70, 24 h, read-out: GR50 (µM)): 2.1 µM; IC50 ([4]; Homo sapiens, MDA-MB-453, 24 h, read-out: GR50 (µM)): 1.7 µM; IC50 ([5]; Homo sapiens, HCC38, 24 h): 0.57 µM; IC50 ([5]; Homo sapiens, HCC38, 24 h, read-out: GR50 (µM)): 0.37 µM; IC50 ([6]; Homo sapiens, HCC1806, 24 h): 3.1 µM; IC50 ([6]; Homo sapiens, HCC1806, 24 h, read-out: GR50 (µM)): 2.5 µM; IC50 ([7]; Homo sapiens, MDA-MB-436, 24 h, read-out: GR50 (µM)): 0.29 µM; IC50 ([8]; Homo sapiens, MDA-MB-468, 24 h): 1.4 µM; IC50 ([8]; Homo sapiens, MDA-MB-468, 24 h, read-out: GR50 (µM)): 0.61 µM; IC50 ([9]; Homo sapiens, CAL-148, 24 h, read-out: GR50 (µM)): 3.4 µM |
